Measurements published in PMC13114161 (Antibiotics, 2026).
Converted amounts (≈) assume the structure as drawn.

What was measured:
P. aeruginosa ATCC 27853 [1] = assay: Neutropenic murine lung infection model; assay type: in vivo, CD-1 mice; details: for Mean Log10 CFU (lung): +24 hr
Method: For the lung infection model, mice were anesthetized by IP injection of 0.15 mL of a ketamine (40 mg/kg) + xylazine (6 mg/kg) mixture and inoculated intranasally (IN) with 0.05 mL of a 4 × 10^8 CFU/mL bacterial suspension applied dropwise to the external nares. Two hours post-infection, mice received test articles IV (EPIs) or SC (levofloxacin). At 2 h or 24 h post-infection, mice were euthanized by CO2 asphyxiation, and lungs were aseptically removed, placed in 2 mL sterile PBS, and homogenized using the same procedure described above. Homogenates were serially diluted and plated (8 µL spots) onto BHI-charcoal and citrate agar, incubated overnight at 37 °C, and colonies were counted the following day.

P. aeruginosa ATCC 27853 [2] = assay: Ethidium bromide efflux inhibition; assay type: cell-based, Pseudomonas aeruginosa
Source text: In the first assay, the efflux of ethidium bromide (EtBr) by P. aeruginosa cells is studied in the presence of different concentrations of TXA11114.

Nav1.5 (peak current) = target: T1, Nav1.5 (peak current) (Homo sapiens, UniProt Q14524); assay: QPatch ion channel assay; assay type: cell-based; details: read-out: % Inhibition (n = 2), Nav1.5
T1 construct: host or cells: HEK-293
Source text: (§1) The automated whole-cell patch-clamp (Qpatch HT) technique is used to record depolarizing currents, hNav1.5 and hCav1.2, and repolarizing potassium currents, hERG. Cells Recombinant HEK-293 cells stably transfected with human Nav1.5 cDNA, Recombinant HEK293 cell line expressing the human Cav1.2 (L-type voltage-gated calcium channel, hCav1.2 α1C/β2a/α2δ1, and recombinant CHO-K1 cells stably transfected with human hERG cDNA are used separately in each of these assays. The cells are harvested by Accutase and maintained in Serum-Free Medium at room temperature before assay. On the instrument, the cells are pipetted into each well of a 48-well plate in external solution. Test concentration stock solution is prepared in DMSO at 300× the final assay concentrations, and stored at −20 °C until the day of assay. On the day of the assay, an aliquot of the stock solution is thawed and diluted into external solution to make final test concentrations. A final concentration of 0.33% DMSO is maintained for each concentration of the assay compounds and controls. The assay is conducted at room temperature. Recording conditions hNav1.5 Peak current Onset and steady state block of peak Nav1.5 current are measured using a pulse pattern, repeated every 5 sec, consisting of a hyperpolarizing pulse to −120 mV for a 200 ms duration, depolarization to −15 mV amplitude for a 40 ms duration, followed by a step to 40 mV for 200 ms and finally a 100 ms ramp (1.2 V/s) to a holding potential of −80 mV. hCav1.2 currents are evoked following a 100 ms pulse to −60 mV followed by a 50 ms pulse to +10 mV before returning to the holding potential of −90 mV. This paradigm is delivered three times once every 20 s. Cells are held at −90 mV with a 5 s pulse to −60 mV every 20 s for a total of 120 s between each set of three pulses. The cell is held at −80 mV. Then the cell is depolarized to +40 mV for 500 ms and then to −80 mV over a 100 ms ramp to elicit the hERG tail current. This paradigm is delivered once every 8 s. The Extracellular Solution (control) is applied first and the cell is stabilized in the solution for 5 min. Then the test compound is applied from low to high concentrations sequentially on the same cell. The cells are incubated with each test concentration for 5 min. Reference compounds Tetracaine Nifedipine and E-4031 are tested concurrently for hNav1.5, hCav1.2 and hERG, respectively, at multiple concentrations to obtain an IC50 value.
(§2) The amplitude of the sodium current is calculated by measuring the difference between the peak inward current on stepping to −10 mV (i.e., peak current) and the leak current. The sodium current is assessed in vehicle control conditions and then at the end of each five (5)-minute compound application. Individual cell results are normalized to the vehicle control amplitude and the mean ± SEM is calculated for each compound concentration. These values are then plotted and estimated IC50 curve fits are calculated. The maximum inward current elicited on stepping to +10 mV for 50msec from −60 mV is measured. Compound interaction is assessed by dividing post-current amplitude (at the end of each three (3)-minute compound application) by the vehicle control amplitude and the mean calculated for each compound concentration. These values are then plotted and estimated IC50 curve fits are calculated. The percent inhibition of the hERG channel is calculated by comparing the peak (hERG tail) current amplitude before and after application of the compound (the current difference is normalized to vehicle control values).

hERG = target: T2, hERG (Homo sapiens, UniProt Q12809); assay: QPatch ion channel assay; assay type: cell-based; details: CHO-K1 cells stably transfected with human hERG, read-out: % Inhibition (n = 2), hERG
T2 construct: host or cells: CHO-K1
Source text: as §1, §2

Cav1.2 = target: T3, Cav1.2 (Homo sapiens, UniProt Q13936); assay: QPatch ion channel assay; assay type: cell-based; details: read-out: % Inhibition (n = 2), Cav1.2
T3 construct: host or cells: HEK293
Source text: as §1, §2

Aqueous solubility = assay type: physicochemical; details: for solubility at 6 h: system solution (SS), pH 7.4, aqueous buffer, kinetic from dmso stock
Method: The aqueous solubility of TXA11114 was evaluated in system solution (SS) at pH 7.4. Known concentrations of TXA11114, prepared as DMSO stock solutions, were spiked into SS and incubated for 6 h at room temperature with constant shaking (250 rpm). Caffeine and diethylstilbestrol (DES) were used as positive controls. […] Aliquots (500 µL) of diluted test and control compounds were dispensed into 96-deep-well plates in triplicate, sealed, and incubated as described above. Following incubation, 300 µL samples were withdrawn and filtered using 0.22 µm filter plates. Optical density at λ_max was measured using a UV spectrophotometer.

Maximum tolerated dose = details: female, CD-1, mouse, iv
Method: Thus, the safety and tolerability of TXA11114 was determined to find an optimum dosing capability. The maximum tolerated dose (MTD) of TXA11114 was assessed in female mice (CD-1, 6–8 weeks old) at the University of North Texas Health Science Center (UNTHSC). TXA11114 was administered IV to groups of three female mice. Mice were administered TXA11114 in the range 30–240 mg/kg (IV bolus). […] As doses are tolerated (not resulting in effects such as mortality, convulsions, or other severe morbidity), they are increased. Survival and general observations as to the tolerability of the administered dose started immediately and continued for a period of 48 h after each dose was recorded.

[3] = levofloxacin 15 mg/kg SC QID, alone or with TXA11114 30 mg/kg IV QID
[4] = levofloxacin 30 mg/kg SC QID, alone or with TXA11114 30 mg/kg IV QID

T2 sequence (Q12809 whole entry): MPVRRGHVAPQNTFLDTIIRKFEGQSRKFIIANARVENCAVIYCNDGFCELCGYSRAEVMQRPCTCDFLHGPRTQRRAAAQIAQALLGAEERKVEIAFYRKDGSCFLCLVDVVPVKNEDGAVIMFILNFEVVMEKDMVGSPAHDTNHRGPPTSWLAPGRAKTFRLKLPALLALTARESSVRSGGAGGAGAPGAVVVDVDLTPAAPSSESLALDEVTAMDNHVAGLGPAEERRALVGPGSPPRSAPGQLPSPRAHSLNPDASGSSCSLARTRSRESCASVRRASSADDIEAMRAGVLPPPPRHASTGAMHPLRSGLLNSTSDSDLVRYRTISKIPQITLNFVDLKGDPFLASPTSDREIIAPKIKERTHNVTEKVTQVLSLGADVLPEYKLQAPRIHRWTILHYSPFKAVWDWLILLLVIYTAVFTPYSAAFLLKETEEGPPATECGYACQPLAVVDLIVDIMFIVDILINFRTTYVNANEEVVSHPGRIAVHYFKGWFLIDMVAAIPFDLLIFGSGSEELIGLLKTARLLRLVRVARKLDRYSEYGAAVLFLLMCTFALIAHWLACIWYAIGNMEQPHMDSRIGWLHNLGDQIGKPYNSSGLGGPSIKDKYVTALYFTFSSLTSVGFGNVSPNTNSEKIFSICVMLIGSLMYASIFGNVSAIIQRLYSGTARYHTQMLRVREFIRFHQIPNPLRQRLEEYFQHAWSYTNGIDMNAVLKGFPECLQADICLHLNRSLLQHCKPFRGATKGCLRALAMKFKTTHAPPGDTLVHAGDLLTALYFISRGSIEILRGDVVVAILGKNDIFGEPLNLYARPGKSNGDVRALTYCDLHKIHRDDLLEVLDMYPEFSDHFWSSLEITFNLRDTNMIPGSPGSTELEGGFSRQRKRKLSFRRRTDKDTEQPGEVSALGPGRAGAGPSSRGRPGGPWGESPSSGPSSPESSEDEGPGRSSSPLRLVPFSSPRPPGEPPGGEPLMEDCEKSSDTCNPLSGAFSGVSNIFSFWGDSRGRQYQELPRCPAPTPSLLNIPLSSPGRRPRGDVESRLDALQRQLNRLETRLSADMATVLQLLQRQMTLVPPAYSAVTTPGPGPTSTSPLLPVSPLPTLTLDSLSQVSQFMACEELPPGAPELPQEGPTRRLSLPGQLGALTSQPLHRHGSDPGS
T3 sequence (Q13936 whole entry): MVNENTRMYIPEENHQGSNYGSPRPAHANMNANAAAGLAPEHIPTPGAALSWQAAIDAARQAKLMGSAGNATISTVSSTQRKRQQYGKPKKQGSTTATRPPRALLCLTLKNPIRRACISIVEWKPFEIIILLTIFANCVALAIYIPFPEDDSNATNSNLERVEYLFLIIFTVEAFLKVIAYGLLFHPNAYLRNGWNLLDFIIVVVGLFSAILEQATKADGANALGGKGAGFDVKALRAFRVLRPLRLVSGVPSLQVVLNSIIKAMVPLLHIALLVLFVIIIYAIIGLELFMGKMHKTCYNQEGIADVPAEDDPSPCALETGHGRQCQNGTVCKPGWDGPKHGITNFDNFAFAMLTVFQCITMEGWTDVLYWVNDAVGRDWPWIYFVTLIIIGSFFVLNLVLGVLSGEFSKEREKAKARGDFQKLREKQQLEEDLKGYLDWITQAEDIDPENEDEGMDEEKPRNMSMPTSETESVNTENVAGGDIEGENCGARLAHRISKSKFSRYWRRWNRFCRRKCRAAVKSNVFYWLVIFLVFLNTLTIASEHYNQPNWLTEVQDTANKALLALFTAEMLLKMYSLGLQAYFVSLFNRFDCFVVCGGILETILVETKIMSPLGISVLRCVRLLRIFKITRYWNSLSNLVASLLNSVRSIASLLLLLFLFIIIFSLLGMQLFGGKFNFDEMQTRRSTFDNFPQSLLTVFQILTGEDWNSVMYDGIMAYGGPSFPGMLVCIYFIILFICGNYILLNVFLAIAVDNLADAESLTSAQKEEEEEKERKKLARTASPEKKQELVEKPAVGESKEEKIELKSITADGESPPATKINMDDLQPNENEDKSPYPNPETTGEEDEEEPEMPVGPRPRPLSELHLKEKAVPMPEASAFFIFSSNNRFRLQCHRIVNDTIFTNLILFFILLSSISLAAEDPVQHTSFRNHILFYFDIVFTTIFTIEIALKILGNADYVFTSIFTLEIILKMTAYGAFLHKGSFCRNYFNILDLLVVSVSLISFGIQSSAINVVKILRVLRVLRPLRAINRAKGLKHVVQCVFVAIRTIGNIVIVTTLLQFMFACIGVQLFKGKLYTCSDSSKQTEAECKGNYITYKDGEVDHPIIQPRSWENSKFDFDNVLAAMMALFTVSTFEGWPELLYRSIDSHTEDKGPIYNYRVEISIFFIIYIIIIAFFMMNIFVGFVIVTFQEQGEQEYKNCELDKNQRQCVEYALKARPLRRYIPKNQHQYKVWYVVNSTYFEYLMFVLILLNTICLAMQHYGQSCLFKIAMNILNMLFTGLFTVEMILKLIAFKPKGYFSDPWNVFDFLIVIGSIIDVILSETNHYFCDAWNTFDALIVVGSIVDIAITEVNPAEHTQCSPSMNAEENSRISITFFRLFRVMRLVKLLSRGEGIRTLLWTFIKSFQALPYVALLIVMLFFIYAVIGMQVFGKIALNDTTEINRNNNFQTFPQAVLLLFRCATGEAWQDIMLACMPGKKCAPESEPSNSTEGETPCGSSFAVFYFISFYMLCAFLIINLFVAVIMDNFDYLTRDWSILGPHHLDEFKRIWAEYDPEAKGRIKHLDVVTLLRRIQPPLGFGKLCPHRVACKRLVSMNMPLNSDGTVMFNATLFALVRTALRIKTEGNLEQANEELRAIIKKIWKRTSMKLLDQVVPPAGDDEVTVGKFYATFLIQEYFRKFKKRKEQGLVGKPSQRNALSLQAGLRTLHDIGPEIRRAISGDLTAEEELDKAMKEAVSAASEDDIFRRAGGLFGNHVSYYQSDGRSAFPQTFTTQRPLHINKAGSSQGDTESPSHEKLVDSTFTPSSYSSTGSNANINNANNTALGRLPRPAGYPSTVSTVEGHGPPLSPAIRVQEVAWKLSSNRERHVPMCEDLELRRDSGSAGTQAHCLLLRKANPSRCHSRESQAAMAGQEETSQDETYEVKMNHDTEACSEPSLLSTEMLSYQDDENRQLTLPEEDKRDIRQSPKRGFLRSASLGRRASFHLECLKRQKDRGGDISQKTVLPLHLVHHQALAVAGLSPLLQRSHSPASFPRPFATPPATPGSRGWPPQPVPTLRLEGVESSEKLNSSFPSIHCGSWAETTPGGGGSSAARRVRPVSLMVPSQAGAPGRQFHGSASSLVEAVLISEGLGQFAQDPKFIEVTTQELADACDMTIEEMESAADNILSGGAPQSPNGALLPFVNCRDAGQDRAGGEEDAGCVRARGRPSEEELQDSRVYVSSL
T3 sequence (Q08289 whole entry partner): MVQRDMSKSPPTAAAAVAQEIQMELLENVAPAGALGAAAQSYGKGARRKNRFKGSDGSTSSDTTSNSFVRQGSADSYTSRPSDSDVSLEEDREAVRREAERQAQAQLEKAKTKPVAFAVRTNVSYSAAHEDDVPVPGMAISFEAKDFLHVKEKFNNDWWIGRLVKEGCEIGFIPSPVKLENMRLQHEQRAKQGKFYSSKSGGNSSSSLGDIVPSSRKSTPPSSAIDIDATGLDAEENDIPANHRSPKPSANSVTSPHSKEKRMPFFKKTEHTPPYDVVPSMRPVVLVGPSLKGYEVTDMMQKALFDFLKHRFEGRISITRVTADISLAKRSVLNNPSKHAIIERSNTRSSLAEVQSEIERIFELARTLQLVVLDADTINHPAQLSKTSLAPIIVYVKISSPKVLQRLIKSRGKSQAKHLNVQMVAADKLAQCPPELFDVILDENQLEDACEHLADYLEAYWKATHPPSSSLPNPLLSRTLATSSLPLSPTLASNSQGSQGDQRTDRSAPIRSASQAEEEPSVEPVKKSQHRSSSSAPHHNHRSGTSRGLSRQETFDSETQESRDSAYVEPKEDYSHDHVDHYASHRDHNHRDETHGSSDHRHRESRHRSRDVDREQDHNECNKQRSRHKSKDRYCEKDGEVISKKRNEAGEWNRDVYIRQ
T3 sequence (P54289 25-1103 partner): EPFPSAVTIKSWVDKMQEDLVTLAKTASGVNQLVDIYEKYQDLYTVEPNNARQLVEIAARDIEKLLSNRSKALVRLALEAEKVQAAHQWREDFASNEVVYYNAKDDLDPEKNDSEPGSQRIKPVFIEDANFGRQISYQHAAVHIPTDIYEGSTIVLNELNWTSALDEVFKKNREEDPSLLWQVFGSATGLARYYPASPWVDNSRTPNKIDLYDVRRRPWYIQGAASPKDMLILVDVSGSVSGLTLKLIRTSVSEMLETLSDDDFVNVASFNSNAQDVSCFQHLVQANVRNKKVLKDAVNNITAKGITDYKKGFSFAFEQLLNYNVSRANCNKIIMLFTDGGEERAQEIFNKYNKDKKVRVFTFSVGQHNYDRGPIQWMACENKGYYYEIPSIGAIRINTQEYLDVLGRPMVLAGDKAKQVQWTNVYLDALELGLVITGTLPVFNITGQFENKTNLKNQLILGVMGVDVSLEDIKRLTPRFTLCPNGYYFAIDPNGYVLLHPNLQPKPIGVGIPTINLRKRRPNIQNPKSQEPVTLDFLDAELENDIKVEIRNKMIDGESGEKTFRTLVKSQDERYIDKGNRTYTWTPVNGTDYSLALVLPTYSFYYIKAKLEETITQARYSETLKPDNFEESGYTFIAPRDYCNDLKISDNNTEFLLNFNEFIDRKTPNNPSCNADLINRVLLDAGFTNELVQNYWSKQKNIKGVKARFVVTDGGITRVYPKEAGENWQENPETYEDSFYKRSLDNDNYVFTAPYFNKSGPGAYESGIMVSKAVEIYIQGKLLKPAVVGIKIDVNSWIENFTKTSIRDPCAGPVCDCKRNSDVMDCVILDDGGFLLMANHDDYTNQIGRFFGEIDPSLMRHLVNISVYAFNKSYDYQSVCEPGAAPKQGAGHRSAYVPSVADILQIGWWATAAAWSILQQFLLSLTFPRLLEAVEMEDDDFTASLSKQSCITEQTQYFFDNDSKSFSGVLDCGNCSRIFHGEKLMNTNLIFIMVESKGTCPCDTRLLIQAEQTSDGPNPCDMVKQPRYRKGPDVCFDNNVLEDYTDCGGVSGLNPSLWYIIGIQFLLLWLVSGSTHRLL

Compound | Mean Log10 CFU (lung) (P. aeruginosa ATCC 27853 [1]; [3]) [log10 CFU] | Mean Log10 CFU (lung) (P. aeruginosa ATCC 27853 [1]; [4]) [log10 CFU] | Mean Log10 CFU Change vs +2 hr Control, Δlog10 (treatment-baseline), lung (P. aeruginosa ATCC 27853 [1]; [3]) [log10 CFU] | Mean Log10 CFU Change vs +24 hr Control, lung (P. aeruginosa ATCC 27853 [1]; [3]) [log10 CFU] | Reduction of lung CFU at 24 h post-infection (P. aeruginosa ATCC 27853 [1]; [4]) [log10 CFU] | Minimal potentiation concentration (MPC) (P. aeruginosa ATCC 27853 [2]; elevated inoculum of EtBr assay (approximately 1000-fold greater)) [µg/mL] | EtBr efflux blockade (fluorescence) (P. aeruginosa ATCC 27853 [2]; increasing TXA11114 concentration) | inhibition at 5 min, 10 µM (Nav1.5 (peak current)) [%] | inhibition at 5 min, 10 µM (hERG) [%] | inhibition at 3 min, 10 µM (Cav1.2) [%] | Effect of EPI alone on bacterial burden, lung (P. aeruginosa ATCC 27853 [1]; 30 mg/kg, IV, QID) | Mean Log10 CFU (lung) (P. aeruginosa ATCC 27853 [1]; TXA11114 30 mg/kg IV QID alone) [log10 CFU] | Mean Log10 CFU Change vs +2 hr Control, Δlog10 (treatment-baseline), lung (P. aeruginosa ATCC 27853 [1]; TXA11114 30 mg/kg IV QID alone) [log10 CFU] | Aqueous solubility (Aqueous solubility; pH 7.4) [µM] | solubility at 6 h (Aqueous solubility) [µM] | MTD at 48 h (Maximum tolerated dose; in vivo, Maximum tolerated dose (MTD), mice, IV bolus for TXA11114) [mg/kg] | MTD at 48 h (Maximum tolerated dose) [mg/kg]
C[C@H]1COc2c(N3CCN(C)CC3)c(F)cc3c(=O)c(C(=O)O)cn1c23 [Levofloxacin, levofloxacin] | 5.86 | 3.98 | 1.27 | 3.03 | 0.61 |  |  |  |  |  |  |  |  |  |  |  | 
NCC(F)C[C@@H](N)CNC(=O)c1cc2ccc(-c3ccc(F)cc3)cc2[nH]1 (stereo partly drawn) [TXA11114, N-((2R)-2,5-diamino-4-fluoropentyl)-6-(4-fluorophenyl)-1H-indole-2-carboxamide] |  |  |  |  |  | 12.5 | fluorescence intensity increased proportionally | -3.7 | 10.9 | 0.2 | did not reduce bacterial burden | 8.75 | 4.16 | 145.9 ± 6.1 | > 145 | < 90 | > 60
NC[C@@H]1CN[C@H](CNC(=O)c2cc3ccc(-c4ccc(F)cc4)cc3[nH]2)C1 [TXA09155] |  |  |  |  |  |  |  | 0.1 | 9.2 | 12.7 |  |  |  |  | 155 ± 3 (≈ 56.8 µg/mL) |  | 30
